Tests used:
Assay type in all cases: in vivo, human
[1] = Case studies: vaginal dryness / vaginal secretions in female patients
Protocol: (§1) A second patient two, suffering from painful intercourse and vaginal dryness and discomfort, also used oral pilocarpine at a dose of 2.5-5 mg BID. […] A trial of intra-vaginal administration of pilocarpine, starting at a dose of 1/4 of a 5 mg tablet daily at night was tried. […] The patient had previously tried HRT without much improvement. The improvement in vaginal symptoms was stunning.
(§2) A third patient has had problems with vaginal dryness and painful intercourse for several years. Oral hormone replacement therapy consisting of both estradiol and PROMETRIUM (progesterone), had provided no relief for their vaginal symptoms. They were started on oral Evoxac, 30 mg daily. After a week, they administered 30 mg cevimeline mixed with a small amount of yogurt directly in the vagina nightly. They have reported improvement in both vaginal dryness and pain on intercourse and continues on the treatment.
They were started on oral pilocarpine, 5 mg twice a day. Within a few days, they noticed marked improvement in their symptoms, i.e., a reduction in vaginal dryness and symptoms associated with urinary tract infections. […]
(§3) Their symptoms consisted of vaginal and pelvic pain as well as signs of urinary tract infections with trace positive cultures. Prior attempts to treat urinary tract infections with antibiotics often failed. They began a regimen of oral pilocarpine, 5 mg twice a day, for a week followed by 5 mg pilocarpine administered directly to the vagina nightly for a week. Subsequently, the amount of pilocarpine was increased to 10 mg directly administered to the vagina nightly. […] Additionally, they reported a reduction in pelvic pain and vaginal dryness a few days after commencing intravaginal administration of 10 mg pilocarpine.

[2] = Case studies: symptoms of interstitial cystitis (IC) in female patients
Protocol: (§4) In the case of a patient who has been diagnosed with IC for more than 8 years, no prior treatment has helped the episodes of pain, urinary frequency, and systemic symptoms mentioned above. […] However, the onset of breast cancer and its treatment have precluded the use of Hormone Replacement Therapy (HRT). Because of vaginal dryness, a trial of Evoxac (cevimeline HCl) capsules, 30 mg daily, by oral administration was tried. […] This lasted for about 2 months. The Evoxac was started on or about Apr. 5, 2009. […] Metoprolol at a dose of 12.5-25 mg/day was started to slow the heart rate. […] The Evoxac was restarted at a dose of 15 mg daily. A trial of intra-vaginal medication at a dose of 30 mg per vagina (powder was taken out of the capsule and instilled using a gel cap) was also tried.
as §3

[3] = Case studies: side effects of oral versus intra-vaginal administration
Protocol: as §4, §1
(§5) […] They began and tolerated oral pilocarpine, 5 mg twice a day.

[4] = Case studies: painful intercourse in female patients
Protocol: as §1, §2
(§6) They began a week long regimen of oral pilocarpine, 5 mg twice a day, followed by 10 mg placed directly in the vagina nightly. They reported improvement in symptoms associated with urinary tract infections, vaginal dryness and painful intercourse. […] Formulation of the pilocarpine in a manner suitable for intravaginal administration will improve delivery of the pilocarpine and the efficacy of treatment.

[5] = Case study: vaginal yeast infections in patient; details: Case Study 5, patient one; oral 5 mg twice a day, approximately 8 months
Protocol: as §5

[6] = Case studies: urinary tract infections in female patients
Protocol: […] […] They were started on oral pilocarpine, 5 mg twice a day. Within a few days, they noticed marked improvement in their symptoms, i.e., a reduction in vaginal dryness and symptoms associated with urinary tract infections.
as §5, §6

[7] = Case Study 1, patient three, 30 mg daily, oral
[8] = Case Study 3, patient seven, oral 30 mg daily for a week, then 30 mg in yogurt directly in the vagina nightly
[9] = Case Study 7, patient four, 10 mg intravaginal nightly, a few days after commencing
[10] = Case Study 2, patient two, oral 2.5-5 mg BID
[11] = Case Study 2, patient two, intra-vaginal up to 7.5 mg daily
[12] = Case Study 6, patient six, oral 5 mg twice a day for a week, then 10 mg in the vagina nightly
[13] = Case Study 4, patient five, oral 5 mg twice a day, within a few days
[14] = Case Study 5, patient one, oral 5 mg twice a day, approximately 8 months

In the case of `CC(=O)[C@H]1CC[C@H]2[C@@H]3CCC4=CC(=O)CC[C@]4(C)[C@H]3CC[C@]12C` [PROMETRIUM, progesterone], the “vaginal symptoms (vaginal dryness and painful intercourse)” value ([1]; Case Study 3, patient seven, oral hormone replacement therapy, estradiol and PROMETRIUM together) is reported as “no relief”.

For `CC1OC2(CS1)CN1CCC2CC1` (stereo not drawn) [Evoxac, 2-methyspiro (1,3-oxathiolane-5,3) quinuclidine], the “symptoms of IC” value ([2]; Case Study 1, patient three, 15 mg daily oral, compared with prior treatment incl. Elmiron 100 mg TID four months) was “improved the symptoms of IC better than any prior treatment”, the “duration of remission of IC symptoms” value [2, 7] was “about 2 months” and the “symptoms of IC” value [2, 7] was “remitted”. For the same compound, the “symptoms of IC” value ([2]; Case Study 1, patient three, 30 mg intra-vaginal (powder in gel cap), compared with prior treatment incl. Elmiron 100 mg TID four months) was “improved the symptoms of IC better than any prior treatment”, the “symptoms of IC after discontinuing the medication” value ([2]; Case Study 1, patient three, stopped for a few weeks) was “symptoms of IC return within a week” and the side effects ([3]; Case Study 1, patient three, 30 mg intra-vaginal) was “completely eliminated side-effects”. The side effects ([3]; Case Study 1, patient three, oral administration, 30 mg daily) was “nausea and rapid heart rate”, the pain on intercourse [4, 8] was “improvement” and the vaginal dryness ([1]; Case Study 1, patient three, capsules 30 mg daily, oral) was “improvement in vaginal dryness”. The vaginal dryness [1, 8] was “improvement”.

With `CC[C@@H]1C(=O)OC[C@@H]1Cc1cncn1C` [pilocarpine, (3S,4R)-3-ethyl-4-((1-methyl-1H-imidazol-5-yl)methyl)dihydrofuran-2(3H)-one] the pelvic pain [2, 9] was “reduction”, the systemic symptoms ([3]; Case Study 2, patient two, intra-vaginal) was “no systemic symptoms” and the side effects [3, 10] was “excess sweating and nausea”. For the same compound, the tolerability ([3]; Case Study 5, patient one, oral 5 mg twice a day) was “tolerated”, the intercourse [4, 11] was “could enjoy intercourse for the first time in many months” and the painful intercourse [4, 12] was “improvement”. The vaginal yeast infections [5] was “far fewer”, the “symptoms associated with urinary tract infections” value [6, 13] was “reduction” and the urinary tract infections [6, 14] was “far fewer”. The “symptoms associated with urinary tract infections” value [6, 12] was “improvement”, the vaginal secretions ([1]; Case Study 2, patient two, intra-vaginal 2.5 mg daily) was “partial response” and the vaginal secretions ([1]; Case Study 2, patient two, intra-vaginal 5 mg daily) was “improved greatly”. For the same compound, the vaginal secretions ([1]; Case Study 2, patient two, intra-vaginal 7.5 mg daily) was “improved greatly”, the “improvement in vaginal symptoms” value [1, 11] was “stunning” and the vaginal dryness [1, 10] was “improved”. For the same compound, the vaginal dryness [1, 13] was “reduction”, the “results of intermittent dosing” value ([1]; Case Study 4, patient five, oral, taken intermittently) was “satisfactory results” and the vaginal dryness [1, 14] was “no more vaginal dryness”. The vaginal dryness [1, 12] was “improvement”, the vaginal secretions ([1]; Case Study 7, patient four, 5 mg directly to the vagina nightly, after the first week) was “an increase in vaginal secretions” and the vaginal secretions ([1]; Case Study 7, patient four, 10 mg directly to the vagina nightly) was “increased more significantly”. For the same compound, the vaginal dryness [1, 9] was “reduction”.
